The record followed here is the OligoGym collection.

Oligonucleotides are written 5' to 3', each unit as a sugar letter and its base; * is a phosphorothioate linkage, no mark a phosphodiester; rarer units and linkages stand in square brackets, end groups in braces. Plain capitals give the bases only. d = 2'-deoxy (DNA); r = 2'-OH (RNA)

For the data set, the target named is UBE2G1. As to the kind of experiment: reporter assay of Huesken 2005. Conditions: siRNA. For orientation: Reporter assays use an easily measured gene product as a stand-in for the process of interest.
Note: test concentration or dose not given here.

Substance “sense rGrArUrArArGrUrArUrGrGrUrUrArUrGrArArAdTdT / antisense rUrUrUrCrArUrArArCrCrArUrArCrUrUrArUrCdTdT” showed a normalised inhibition (eCFP-eYFP dual reporter) of 87.7%.

Turning to “sense rUrGrCrCrCrGrCrUrGrUrGrUrArArGrArArArAdTdT / antisense rUrUrUrUrCrUrUrArCrArCrArGrCrGrGrGrCrAdAdC”, the normalised inhibition (eCFP-eYFP dual reporter) came out at 94.3%.

For the substance “sense rArCrArCrUrGrUrGrGrArArArCrCrArUrCrArUdTdT / antisense rArUrGrArUrGrGrUrUrUrCrCrArCrArGrUrGrUdGdG”, the normalised inhibition (eCFP-eYFP dual reporter) amounted to 89.3%.

As for “sense rCrArCrCrCrArArArUrGrUrUrGrArUrArArArAdTdT / antisense rUrUrUrUrArUrCrArArCrArUrUrUrGrGrGrUrGdCdC”, the normalised inhibition (eCFP-eYFP dual reporter) came out at 73.1%.

In turn, “sense rCrArUrGrArGrCrCrUrGrGrGrGrArArGrArUrAdTdT / antisense rUrArUrCrUrUrCrCrCrCrArGrGrCrUrCrArUrGdAdA” came in with a normalised inhibition (eCFP-eYFP dual reporter) of 76%.

Turning to “sense rGrCrUrGrCrGrArArArGrArArUrGrGrArGrGrGdTdT / antisense rCrCrCrUrCrCrArUrUrCrUrUrUrCrGrCrArGrCdAdT”, the normalised inhibition (eCFP-eYFP dual reporter) amounted to 63.8%.

The substance “sense rUrCrUrGrCrArGrGrUrUrUrArArUrArGrArUrGdTdT / antisense rCrArUrCrUrArUrUrArArArCrCrUrGrCrArGrAdAdA” showed a normalised inhibition (eCFP-eYFP dual reporter) of 60.6%.

For “sense rArGrArUrUrArUrCrCrCrCrUrCrCrGrArCrCrUdTdT / antisense rArGrGrUrCrGrGrArGrGrGrGrArUrArArUrCrUdTdT”, the normalised inhibition (eCFP-eYFP dual reporter) was 84.2%.

Consider “sense rCrArGrGrUrUrUrArArUrArGrArUrGrArCrArAdTdT / antisense rUrUrGrUrCrArUrCrUrArUrUrArArArCrCrUrGdCdA”, for which the normalised inhibition (eCFP-eYFP dual reporter) was determined as 97.5%.

With “sense rCrUrCrUrArCrCrGrArUrGrGrGrArArGrUrCrCdTdT / antisense rGrGrArCrUrUrCrCrCrArUrCrGrGrUrArGrArGdAdT”, the normalised inhibition (eCFP-eYFP dual reporter) was 68.3%.

Turning to “sense rGrArGrArArUrUrUrArArArArGrArArArArGrUdTdT / antisense rArCrUrUrUrUrCrUrUrUrUrArArArUrUrCrUrCdCdA”, the normalised inhibition (eCFP-eYFP dual reporter) was found to be 56.4%.

Substance “sense rArCrCrUrGrCrUrArArUrGrUrUrGrArUrGrCrUdTdT / antisense rArGrCrArUrCrArArCrArUrUrArGrCrArGrGrUdGdA” registered a normalised inhibition (eCFP-eYFP dual reporter) of 93.9%.

“sense rUrCrCrCrUrArUrCrCrArCrArCrUrGrUrGrGrAdTdT / antisense rUrCrCrArCrArGrUrGrUrGrGrArUrArGrGrGrAdGdC” displayed a normalised inhibition (eCFP-eYFP dual reporter) of 62.1%.

For “sense rUrArUrGrGrUrUrArUrGrArArArArGrCrCrArGdTdT / antisense rCrUrGrGrCrUrUrUrUrCrArUrArArCrCrArUrAdCdT”, the normalised inhibition (eCFP-eYFP dual reporter) came out at 31.8%.

As for “sense rCrCrUrGrCrUrArArUrGrUrUrGrArUrGrCrUrGdTdT / antisense rCrArGrCrArUrCrArArCrArUrUrArGrCrArGrGdTdG”, the normalised inhibition (eCFP-eYFP dual reporter) was 97.5%.

Take “sense rArArCrCrArUrCrArUrGrArUrUrArGrUrGrUrCdTdT / antisense rGrArCrArCrUrArArUrCrArUrGrArUrGrGrUrUdTdC”: the normalised inhibition (eCFP-eYFP dual reporter) was 65.4%.

In turn, “sense rGrGrUrGrArUrGrUrGrUrGrCrArUrUrUrCrUrAdTdT / antisense rUrArGrArArArUrGrCrArCrArCrArUrCrArCrCdAdT” had a normalised inhibition (eCFP-eYFP dual reporter) of 94.7%.

Substance “sense rGrUrUrArUrGrArArArArGrCrCrArGrArGrGrAdTdT / antisense rUrCrCrUrCrUrGrGrCrUrUrUrUrCrArUrArArCdCdA” came in with a normalised inhibition (eCFP-eYFP dual reporter) of 49.3%.

For “sense rUrUrUrArArArArGrArArArArGrUrUrGrCrCrCdTdT / antisense rGrGrGrCrArArCrUrUrUrUrCrUrUrUrUrArArAdTdT”, the normalised inhibition (eCFP-eYFP dual reporter) was 43.5%.

For “sense rArArArCrCrArUrCrArUrGrArUrUrArGrUrGrUdTdT / antisense rArCrArCrUrArArUrCrArUrGrArUrGrGrUrUrUdCdC”, the normalised inhibition (eCFP-eYFP dual reporter) turned out to be 66.9%.

On to “sense rUrUrUrCrUrArUrUrCrUrUrCrArUrGrArGrCrCdTdT / antisense rGrGrCrUrCrArUrGrArArGrArArUrArGrArArAdTdG”, for which the normalised inhibition (eCFP-eYFP dual reporter) came to 29.5%.

On to “sense rCrArGrArGrGrArArCrGrCrUrGrGrCrUrCrCrCdTdT / antisense rGrGrGrArGrCrCrArGrCrGrUrUrCrCrUrCrUrGdGdC”, for which the normalised inhibition (eCFP-eYFP dual reporter) worked out at 42.5%.

Substance “sense rUrGrCrGrArArArGrArArUrGrGrArGrGrGrArAdTdT / antisense rUrUrCrCrCrUrCrCrArUrUrCrUrUrUrCrGrCrAdGdC” came in with a normalised inhibition (eCFP-eYFP dual reporter) of 72.7%.

Substance “sense rCrCrArCrArCrUrGrUrGrGrArArArCrCrArUrCdTdT / antisense rGrArUrGrGrUrUrUrCrCrArCrArGrUrGrUrGrGdAdT” displayed a normalised inhibition (eCFP-eYFP dual reporter) of 86.1%.

As for “sense rUrCrCrUrUrArUrUrArUrUrGrGrCrCrCrUrCrCdTdT / antisense rGrGrArGrGrGrCrCrArArUrArArUrArArGrGrAdCdT”, the normalised inhibition (eCFP-eYFP dual reporter) amounted to 44.7%.

The substance “sense rGrGrCrUrUrUrUrCrUrGrCrArGrGrUrUrUrArAdTdT / antisense rUrUrArArArCrCrUrGrCrArGrArArArArGrCrCdTdT” registered a normalised inhibition (eCFP-eYFP dual reporter) of 83.3%.

The substance “sense rGrCrUrGrGrCrUrCrCrCrUrArUrCrCrArCrArCdTdT / antisense rGrUrGrUrGrGrArUrArGrGrGrArGrCrCrArGrCdGdT” registered a normalised inhibition (eCFP-eYFP dual reporter) of 64%.

“sense rCrUrCrCrUrArArArArUrGrArArArUrUrCrArUdTdT / antisense rArUrGrArArUrUrUrCrArUrUrUrUrArGrGrArGdGdT” returned a normalised inhibition (eCFP-eYFP dual reporter) of 87.9%.

Take “sense rUrCrUrGrGrCrArCrCrCrArArArUrGrUrUrGrAdTdT / antisense rUrCrArArCrArUrUrUrGrGrGrUrGrCrCrArGrAdTdT”: the normalised inhibition (eCFP-eYFP dual reporter) amounted to 73.4%.

“sense rUrGrArArArUrUrCrArUrUrArCrArGrArArArUdTdT / antisense rArUrUrUrCrUrGrUrArArUrGrArArUrUrUrCrAdTdT” returned a normalised inhibition (eCFP-eYFP dual reporter) of 61.6%.

The substance “sense rCrArUrUrArCrArGrArArArUrCrUrGrGrCrArCdTdT / antisense rGrUrGrCrCrArGrArUrUrUrCrUrGrUrArArUrGdAdA” yielded a normalised inhibition (eCFP-eYFP dual reporter) of 50.1%.

For the substance “sense rCrCrCrUrCrCrGrArCrCrUrCrCrUrArArArArUdTdT / antisense rArUrUrUrUrArGrGrArGrGrUrCrGrGrArGrGrGdGdA”, the normalised inhibition (eCFP-eYFP dual reporter) is 62.4%.

“sense rArUrUrGrGrCrCrCrUrCrCrArGrArUrArCrArCdTdT / antisense rGrUrGrUrArUrCrUrGrGrArGrGrGrCrCrArArUdAdA”: the normalised inhibition (eCFP-eYFP dual reporter) came to 36.1%.

On to “sense rUrUrCrUrArUrGrCrUrGrGrCrArGrArCrCrCrUdTdT / antisense rArGrGrGrUrCrUrGrCrCrArGrCrArUrArGrArAdAdT”, for which the normalised inhibition (eCFP-eYFP dual reporter) was 61%.

On to “sense rArUrGrGrUrUrArUrGrArArArArGrCrCrArGrAdTdT / antisense rUrCrUrGrGrCrUrUrUrUrCrArUrArArCrCrArUdAdC”, for which the normalised inhibition (eCFP-eYFP dual reporter) amounted to 39.2%.
